In publication PMC9898755 (The Journal of Biological Chemistry, 2023):

How the values were obtained:
[1] = target: T1, Sec14^V155F (Saccharomyces cerevisiae, UniProt P24280, V155F); assay: [3H]-PtdIns-transfer assay, […] PITP, […] himbacine, […] inhibition; format: biochemical; settings: read-out: % inhibition at 20 μM
T1 sequence (P24280 2-304 V155F): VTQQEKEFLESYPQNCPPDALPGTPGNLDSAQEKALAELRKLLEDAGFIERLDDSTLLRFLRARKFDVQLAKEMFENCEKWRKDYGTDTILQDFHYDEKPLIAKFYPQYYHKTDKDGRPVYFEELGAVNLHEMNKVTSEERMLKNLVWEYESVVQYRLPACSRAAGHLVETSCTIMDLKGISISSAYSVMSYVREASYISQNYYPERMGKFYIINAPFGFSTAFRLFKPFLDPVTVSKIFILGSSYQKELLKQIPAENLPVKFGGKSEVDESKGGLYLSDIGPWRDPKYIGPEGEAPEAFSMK

[2] = target: T2, Sec14^V154F (Saccharomyces cerevisiae, UniProt P24280, V154F); assay: as above; format: biochemical; settings: read-out: % inhibition at 20 μM
T2 sequence (P24280 2-304 V154F): T1 sequence (P24280 2-304 V155F)

C[C@@H]1OC(=O)[C@H]2C[C@H]3CCCC[C@@H]3[C@@H](/C=C/[C@H]3CCC[C@H](C)N3C)[C@@H]12 [himbacine]
inhibition at 20 µM [1]: 73 ± 2.1% | inhibition at 20 µM [2]: 71 ± 1.2%
